# Data from ChEMBL document CHEMBL4477270, “Design, synthesis, and protein methyltransferase activity of a unique set of constrained amine containing compounds” (Bioorg Med Chem Lett, 2016).
# Biological target: T1, N-lysine methyltransferase KMT5A (Homo sapiens, UniProt Q9NQR1)
# T1 sequence (Q9NQR1 whole entry): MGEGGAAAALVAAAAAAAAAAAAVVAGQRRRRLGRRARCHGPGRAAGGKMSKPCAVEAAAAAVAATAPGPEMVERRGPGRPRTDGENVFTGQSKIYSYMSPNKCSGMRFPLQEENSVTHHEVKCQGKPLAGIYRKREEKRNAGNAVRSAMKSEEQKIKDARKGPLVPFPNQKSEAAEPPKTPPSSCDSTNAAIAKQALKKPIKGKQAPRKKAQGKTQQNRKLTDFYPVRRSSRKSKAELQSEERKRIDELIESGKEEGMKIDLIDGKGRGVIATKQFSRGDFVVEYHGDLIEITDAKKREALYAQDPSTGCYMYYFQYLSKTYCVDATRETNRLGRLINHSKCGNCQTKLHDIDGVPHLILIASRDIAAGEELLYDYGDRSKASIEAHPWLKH
# Test: Inhibition of SETD8 in HEK293T cells assessed as reduction in H4K20me level after 2 to 3 days by Western blot analysis
# Assay type: cell-based
row,EC50 [µM],Structure (SMILES)
1,< 1,Cc1ccc(/N=C2\CC(=O)c3sc(C)nc3C2=O)cc1
2,< 5,O=C1C(Cl)=C(NCCN2CCOCC2)C(=O)c2ncccc21
3,< 5,CC1(C)C(=O)N=C2C1=C(O)C(=O)c1ccccc12
